Measurements taken from patent US9580400B2, “Cannabinergic nitrate esters and related analogs” (Northeastern University, priority 2013, dated 2017).

Tests used:
human GPR55 receptor = target: T1, human GPR55 receptor (Homo sapiens, UniProt Q9Y2T6); assay: β-arrestin2 translocation assay, GPR55, U2OS cells; assay type: cell-based
T1 construct: human GPR55 receptor modified with human vasopressin V2 receptor tail [GPR55(E)]; fused on or other part: C-terminal tail of the human vasopressin V2 receptor (AVPR2), added to strengthen beta-arrestin recruitment; HA tag; Beta-arrestin 2-GFP is co-expressed as the read-out
Procedure: Test compounds were screened in U2OS cells permanently expressing β-arrestin 2-GFP and human GPR55 receptor modified with human vasopressin V2 receptor tail [GPR55(E)].
β-arrestin2 translocation: For both agonist and antagonist assays, the U2OS cells permanently transfected with β-arrestin 2-GFP and human GPR55(E) were used to trace β-arrestin translocation upon compound treatment. U2OS cells permanently expressing HA-GPR55E and βarr2-GFP were plated into 96 or 384 glass bottomed well plates in clear MEM. For the antagonist assay, compounds in DMSO (final concentration <1%) were added to cells 15 min prior to LPI (agonist) addition and the plates were placed in a 5% 37 degree CO2 incubator (LPI was used at 6 μM). For agonist evaluation only the compound of interest is placed on the wells. Following 40 minute incubation, the cells are fixed by adding paraformaldehyde to 4%. Image acquisition is performed using the Cellomics Arrayscan VTI High Content (HC) cell based imaging system and a ×40 lens. Image analysis is done by using the Batchmode computer software evaluating wavelet information which reflects the number and intensity of fluorescent aggregation (procedures performed at Duke University and adopted from http://www.ncbi.nlm.nih.gov/books/NBK66153/and J. Biol. Chem. 2009; 284(43):29817-27 herein incorporated by reference in its entirety). FIG. 15 describes the biochemical assay for compound 78 wherein the β-arrestin assessment of GPR55 activation is shown.

hCB2 = target: T2, hCB2 (Homo sapiens, UniProt P34972); assay: hCB2 competition-equilibrium binding using [3H]CP-55,940, HEK293 cell membranes; conditions: HEK293 cell membranes expressing hCB2; Ki calculated from IC50; read-out: hCB2 affinity data
T2 construct: expressed in transfected cells; host or cells: HEK293
Procedure: HEK293 cells expressing hCB1, hCB2 or mCB2 receptor are used for membrane preparations according to the method described in J Neurochem 1999, 72, (5), 2032-8, herein incorporated by reference in its entirety. The resulting pellet is resuspended in 10 mM Tris-chloride, pH 7.4 with 5 mM MgCl2 and 2 mM EDTA (TME), and stored at −80° C. for no longer than two months. Protein content is assayed by using the Bio-Rad DC protein assay according to the manufacturer's protocol.
(§1) The compounds are tested for their ability to bind to CB1 and CB2 receptors using rat brain or HEK293 cell membranes expressing hCB2 and mCB2 membrane preparations, respectively, as described in J Med Chem 1999, 42, (4), 769-776, J Med Chem 1994, 37, (23), 3867-70 and Life Sci 1995, 56, (23-24), 1957-62 (each herein incorporated by reference in its entirety) via competition-equilibrium binding using [^3H]CP-55,940. The results are analyzed using nonlinear regression to determine the actual IC50 of the ligand (Prizm by GraphPad Software, Inc.) and the Ki values are calculated from the IC50 as described in Biochemical Pharmacology 1973, 22, (23), 3099-3108; herein incorporated by reference in its entirety.

rCB1 = target: T3, rCB1 (Rattus norvegicus, UniProt P20272); assay: rCB1 competition-equilibrium binding using [3H]CP-55,940, rat brain membranes; conditions: Ki calculated from IC50, read-out: rCB1 affinity data
T3 construct: tissue Pel-Freeze Biologicals; host or cells: rat brain membranes
Procedure: Frozen rat brains (CB1 source) are obtained from Pel-Freeze Biologicals (Rogers, A K) and stored at −80° C. until use. Membranes are prepared according to the method described in Brain Res 1981, 226, (1-2), 107-18 and adapted as previously reported in J Med Chem 1994, 37, (23), 3867-70 and Life Sci 1995, 56, (23-24), 1957-62; each herein incorporated by reference in its entirety.
as §1

[1] = antagonist assay, compound added 15 min prior to LPI (6 μM), U2OS cells with β-arrestin 2-GFP and GPR55(E)

T1 sequence (Q9Y2T6 1-292 limits assumed): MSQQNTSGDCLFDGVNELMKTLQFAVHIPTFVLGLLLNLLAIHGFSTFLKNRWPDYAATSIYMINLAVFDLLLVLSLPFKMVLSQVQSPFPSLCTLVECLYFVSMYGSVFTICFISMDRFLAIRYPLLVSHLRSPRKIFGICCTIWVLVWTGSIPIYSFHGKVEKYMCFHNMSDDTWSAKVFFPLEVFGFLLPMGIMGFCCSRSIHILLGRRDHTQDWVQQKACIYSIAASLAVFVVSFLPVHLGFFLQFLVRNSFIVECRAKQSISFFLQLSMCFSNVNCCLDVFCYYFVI
T3 sequence (P20272 whole entry): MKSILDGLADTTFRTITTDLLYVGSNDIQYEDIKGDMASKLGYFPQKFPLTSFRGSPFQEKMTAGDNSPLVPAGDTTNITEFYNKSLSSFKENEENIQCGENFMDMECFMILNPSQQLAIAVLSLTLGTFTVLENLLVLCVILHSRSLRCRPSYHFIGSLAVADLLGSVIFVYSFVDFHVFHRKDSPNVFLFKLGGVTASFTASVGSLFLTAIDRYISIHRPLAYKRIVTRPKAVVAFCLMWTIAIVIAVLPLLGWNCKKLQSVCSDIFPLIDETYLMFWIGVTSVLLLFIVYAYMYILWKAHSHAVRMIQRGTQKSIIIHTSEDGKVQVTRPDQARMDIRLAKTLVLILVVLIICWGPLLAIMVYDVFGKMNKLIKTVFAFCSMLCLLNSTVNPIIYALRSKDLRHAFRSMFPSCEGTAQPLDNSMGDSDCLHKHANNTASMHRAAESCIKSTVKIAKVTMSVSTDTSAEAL
T2 sequence (P34972 whole entry): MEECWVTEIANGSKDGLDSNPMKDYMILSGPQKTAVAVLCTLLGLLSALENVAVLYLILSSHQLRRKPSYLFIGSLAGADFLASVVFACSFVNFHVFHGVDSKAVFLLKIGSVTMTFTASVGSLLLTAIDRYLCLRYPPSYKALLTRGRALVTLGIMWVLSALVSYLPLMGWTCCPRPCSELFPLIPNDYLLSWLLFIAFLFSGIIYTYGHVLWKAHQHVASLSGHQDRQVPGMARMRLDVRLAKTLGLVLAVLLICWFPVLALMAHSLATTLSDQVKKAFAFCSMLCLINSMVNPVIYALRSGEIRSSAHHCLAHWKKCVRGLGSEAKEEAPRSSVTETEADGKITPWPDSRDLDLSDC

In the case of `C=C(C)[C@@H]1CCC(C)=C[C@H]1c1c(O)cc(O)cc1CCCCC` [abn-cannabidiol, abnormal cannabidiol], the “GPR55 EC50” value (human GPR55 receptor; [1]) is reported as “none”.
`C=C(C)[C@@H]1CCC(C)=C[C@H]1c1c(O)cc(CCCCC)cc1O` [cannabidiol] was tested, and the “GPR55 EC50” value (human GPR55 receptor; [1]) was “none”.
`CC1=CC[C@@H]2[C@@H](C1)c1c(O)cc(C(C)(C)CCCCO[N+](=O)[O-])cc1OC2(C)C` [compound 1, 5-((6aR,1aR)-1-hydroxy-6,6,9-trimethyl-6a,7,10,10a-tetrahydro-6H-benzo[c]chromen-3-yl)-5-methylhexyl nitrate] gave a Ki (hCB2) of 1 nM and a Ki (rCB1) of 0.1 nM.
`C=C(C)[C@@H]1CCC(C)=C[C@H]1c1c(O)cc(C(C)(C)CCCCO[N+](=O)[O-])cc1O` [compound 78, 5-((1′R,2′R)-2,6-dihydroxy-5′-methyl-2′-(prop-1-en-2-yl)-1′,2′,3′,4′-tetrahydro-[1,1′-biphenyl]-4-yl)-5-methylhexyl nitrate] showed an EC50 (human GPR55 receptor; [1]) of 2000 to 4000 nM, a Ki (hCB2) of 35 nM and a Ki (rCB1) of 60 nM.
In the case of `CCCCCc1cc(O)c2c(c1)OC(C)(C)[C@@H]1CCC(C)=C[C@@H]21` [Δ^9-THC, Δ^9-tetrahydrocannabinol], the “GPR55 EC50” value (human GPR55 receptor; [1]) is reported as “none”.
L-α-lysophosphatidylinositol [LPI] was tested, and the EC50 (human GPR55 receptor; LPI (agonist) line of the antagonist assay table) was 6000 nM.
